{"source": "patent US8765702B2", "about": "“Composition and methods for modulating cell proliferation and cell death” (Rosetta Genomics Ltd., priority 2007, dated 2014)", "key": {"[1]": {"test_system": "Notch pathway in MCF7 cells", "assay": "qRT-PCR of Notch pathway mRNAs (DLL1, Jag1, Notch1, Hey1)", "type": "cell-based, human", "protocol": "(D) MCF7 cells were transfected with scramble or anti-miR-34a LNA oligos. 24 h post-transfection, 20 μM Nutlin-3 was added to the half of the samples for additional 48 h. RNA extraction and analysis was as in (B).\n(§1) RNA quantification was performed by real-time qRT-PCR in an ABI PRISM 7300 Sequence Detection System (Applied Biosystems) with SYBR Green Master Mix (Applied Biosystems). For mRNA quantification, cDNA produced with random hexamers and MMLV reverse transcriptase (Promega) from 10 ng of total RNA was subjected to RT-PCR using super SYBR-green ready mix (Applied Biosystems) and specific DNA primers (Table 1 for the EST, Table 2 for p21, Hdm2, GAPDH and HPRT). For small RNAs (U6, 5S, microRNAs), 50 ng total RNA was converted to cDNA using specific primers for reverse transcription (Ambion) and MMLV reverse transcriptase. Relative expression levels were determined by real-time qRT-PCR using super SYBR-green ready mix and specific primers (Ambion). Quantification was done using standard curves. All reactions were performed in duplicate."}, "[2]": {"test_system": "Notch pathway in A172 cells", "assay": "qRT-PCR of Notch pathway mRNAs (DLL1, Jag1, Notch1, Hey1)", "type": "cell-based", "details": "72 hours after transfection; for mRNA levels of DLL1, Jag1 or Notch1: normalized to GAPDH", "protocol": "(B) A172 cells were transfected with either scrambled or anti-miR-34a LNA oligos. RNA was isolated 72 hours later, and subjected to qRT-PCR to determine relative levels of expression of DLL1, Jag1 and Notch1 (normalized to GAPDH).\n(C) A172 cells were transfected with pcDNA3-pm34a-EST-MUT (MUT) or pcDNA3-pm34a-EST (EST). RNA extraction and analysis was as in (B).\nas §1\nA complementary, opposite effect on Hey1 expression was seen when miR-34a was over-expressed in A172 cells."}, "[3]": {"test_system": "U2OS cells", "assay": "Apoptosis by microscopy and FACS-based sub-G1 DNA content", "type": "cell-based, human"}, "[4]": {"test_system": "p53 binding to the pm34a-EST p53BS", "assay": "Chromatin immunoprecipitation (ChIP)", "type": "cell-based, human", "details": "HCT116 cells, 50 μg/ml 5-FU for 16 hours", "protocol": "(A) HCT116 cells stably expressing shRNA specific for p53 (sip53) or for LacZ (siLacZ) were either left untreated or treated for 16 hours with 50 μg/ml 5-FU, and then subjected to ChIP analysis with antibodies directed against p53 or HA as a control. The precipitated DNA was subjected to quantitative real-time PCR analysis with primers spanning the 5′ p53BS of the p21 gene, the putative p53BS of the pm34a-EST, or the GAPDH gene as a negative control. (B) Schematic representation of the DNA fragment (thick bar) cloned into the luciferase reporter plasmid. The positions of the p53BS and exons 1 and 2 of the pm34a-EST are also indicated. (C) The putative promoter of the pm34a-EST was cloned upstream to the firefly luciferase reporter gene in the pGL3-basic vector to yield plasmid EST-Prom-luc. EST-Prom-luc was transfected into H1299 cells without or with the indicated amounts of p53 expression plasmid. Luciferase activity was then measured by the dual luciferase assay, and normalized for Renilla luciferase activity. […]\nChIP analysis was performed as described (Minsky, 2004), employing the CM1 p53-specific polyclonal antibody or anti-HA polyclonal antibody as a control. […] Quantification of precipitated DNA was preformed by real-time qPCR, using an ABI PRISM 7300 Sequence Detection System. […]"}, "[5]": {"test_system": "EST-Prom-luc (miR-34a putative promoter)", "assay": "Dual luciferase assay with EST-Prom-luc in HCT116 cells", "type": "cell-based, human", "details": "HCT116 control (siLacZ) cells, 5-FU for 16 hours"}, "[6]": {"test_system": "pm34a-EST, miR-34a and p21 mRNA in H1299-TS cells", "assay": "qRT-PCR of p53-dependent induction in the presence of cycloheximide", "type": "cell-based, human", "details": "H1299-TS cells shifted to 32° C., 80 nM CHX", "protocol": "(A) H1299 and 111299-TS cells were either left untreated or supplemented with 80 nM cycloheximide (CHX) for 30 min before being shifted to either 37° C. or 32° C. Cells were then incubated for the indicated time periods with continuous exposure to the drug. RNA was isolated and subjected to qRT-PCR analysis with primers specific for pm34a-EST. Values were normalized for HPRT in the same samples. (B) H1299-TS cells were processed essentially as in (A), except that CHX was added only where indicated. RNA was subjected to qRT-PCR with primers specific for mature miR-34a. Values were normalized for U6 RNA in the same samples. (C) The same RNA samples as in (B) were subjected to qRT-PCR analysis with primers specific for p21 mRNA. […]\nas §1, with “For small RNAs (U6, 5S, microRNAs), 50 ng total RNA was converted to cDNA using specific primers for reverse transcription (Ambion) and MMLV reverse transcriptase.” left out, “All reactions were performed in duplicate.” left out"}, "[7]": {"test_system": "p53 mRNA and p21 mRNA in U2OS cells", "assay": "qRT-PCR analysis of p53 mRNA and p21 mRNA after Nutlin-3", "type": "cell-based, human", "details": "20 μM Nutlin-3 for 48 h, normalized to HPRT", "protocol": "(A) HCT116 cells stably expressing shRNA against p53 (sip53) or LacZ (siLacZ) were either treated with 50 μg/ml 5-FU for 16 h or left untreated. […] total RNA from each sample was subjected to qRT-PCR analysis of p21 mRNA. Results were normalized to HPRT expression in the same samples. (B) U2OS cells stably expressing shRNA against p53 (sip53) or LacZ (siLacZ) were either treated with 20 μM Nutlin-3 for 48 h or left untreated. RNA from each sample was subjected to qRT-PCR analysis of p53 mRNA and p21 mRNA. […] The modest increase in p53 mRNA (1.8 fold) has not been further investigated. (C) Western blot analysis of 20 μg total protein extracted from parallel cultures treated as in (A). […]\nas §1, with “For small RNAs (U6, 5S, microRNAs), 50 ng total RNA was converted to cDNA using specific primers for reverse transcription (Ambion) and MMLV reverse transcriptase.” left out, “All reactions were performed in duplicate.” left out"}, "[8]": {"test_system": "Bcl-2", "assay": "Western blot analysis of Bcl-2 protein", "type": "cell-based, human", "details": "H1299 or U2OS cells, 100 nM pre-miR-34a RNA oligonucleotides, three days post-transfection", "protocol": "(§2) (A) H1299 or U2OS cells were transiently transfected with 100 nM control scrambled RNA (cont) or pre-miR-34a RNA oligonucleotides (pre-34a, Ambion) using siPORT NeoFX transfection reagent (Ambion). Three days post-transfection, cell extracts were prepared. 30 μg of total protein was subjected to SDS-15% polyacrylamide gel electrophoresis followed by Western blot analysis with antibodies directed against GAPDH (MAB374, Chemicon) and Bcl-2 (C-2, Santa Cruz). (B) Total RNA was extracted from identical cultures as in (A) using the mirVana miRNA isolation kit (Ambion). RNA was converted to cDNA using random hexamers and MMLV reverse transcriptase (Promega). cDNA obtained from 10 ng total RNA was subjected to real-time PCR analysis using specific primers for Bcl-2 mRNA (forward primer—5′-[…]-3′ (SEQ ID NO: 42), reverse primer—5′-ATCAAACAGAGGCCGCATG-3′ (SEQ ID NO: 43) and super SYBR-green ready mix (Applied Biosystems) in an ABI PRISM 7300 Sequence Detection System (Applied Biosystems). Bcl-2 mRNA levels were normalized relative to GAPDH mRNA (forward primer—5′-[…]-3′ (SEQ ID NO: 44), reverse primer—5′-AAAAGCAGCCCTGGTGACC-3′) (SEQ ID NO: 45) in the same samples. RU=relative units. (C) 200 ng of total RNA obtained from (B) was subjected to quantitative real-time RT-PCR using primers for mature miR-34a. Values were normalized relative to U6 RNA levels in the same samples. […]"}, "[9]": {"test_system": "Bcl-2 mRNA", "assay": "Real-time PCR analysis of Bcl-2 mRNA", "type": "cell-based, human", "details": "H1299 or U2OS cells, 100 nM pre-miR-34a RNA oligonucleotides, normalized to GAPDH mRNA", "protocol": "as §2"}}}
{"compound": "5′-aacaaccagctaagacactgcca-3′ (antisense AACAACCAGCTAAGACACTGCCA; LNA-modified, pattern not given here) [LNA anti-miR-34a]", "values": [{"measurement": "expression of Hey1 following p53 activation", "setting": "[1]; 20 μM Nutlin-3 for 48 h", "value": "stronger effect"}, {"measurement": "expression of Hey1", "setting": "[1]; versus scrambled LNA", "value": "up-regulation"}, {"measurement": "mRNA levels of DLL1, Jag1 or Notch1", "setting": "[1]; versus scrambled LNA", "value": "no effect"}, {"measurement": "expression of Hey1", "setting": "[2]", "value": "up-regulation"}, {"measurement": "mRNA levels of DLL1, Jag1 or Notch1", "setting": "[2]", "value": "no effect"}, {"measurement": "protection from apoptosis in p53 knockdown cells", "setting": "[3]; U2OS cells stably expressing p53 shRNA (sip53)", "value": "not observed"}, {"measurement": "spontaneous apoptosis", "setting": "[3]; U2OS cells, 100 nM LNA, versus scrambled oligonucleotide", "value": "decrease in spontaneous apoptosis"}, {"measurement": "apoptosis due to Nutlin-3 treatment", "setting": "[3]; U2OS siLacZ cells, 100 nM LNA with 20 μM Nutlin-3 for 48 hours", "value": "partial protection"}]}
{"compound": "O=c1[nH]cc(F)c(=O)[nH]1", "note": "[5-FU, 5 fluorouracil]", "values": [{"measurement": "p53 binding to the pm34a-EST p53BS", "setting": "[4]", "value": "further augmented"}, {"measurement": "luciferase activity", "setting": "[5]", "value": "nearly twofold increase"}]}
{"compound": "C[C@@H]1C[C@@H]([C@H](O)CC2CC(=O)NC(=O)C2)C(=O)[C@@H](C)C1", "note": "[CHX, cycloheximide]", "values": [{"measurement": "induction of pm34a-EST or mature miR-34a", "setting": "[6]", "value": "did not prevent the induction"}, {"measurement": "p21 mRNA induction", "setting": "[6]", "value": "nor did it affect"}]}
{"compound": "COc1ccc(C2=N[C@@H](c3ccc(Cl)cc3)[C@@H](c3ccc(Cl)cc3)N2C(=O)N2CCNC(=O)C2)c(OC(C)C)c1", "note": "[Nutlin-3]", "values": [{"measurement": "Jag1 and Notch1 mRNA levels", "setting": "[1]; 20 μM Nutlin-3 for 48 h", "value": "induction"}, {"measurement": "apoptosis", "setting": "[3]; U2OS cells, 20 μM Nutlin-3 for 48 hours", "value": "enhanced apoptosis"}, {"measurement": "p21 mRNA increase", "setting": "[7]", "value": 10.3, "unit": "fold"}, {"measurement": "p53 mRNA increase", "setting": "[7]", "value": 1.8, "unit": "fold"}]}
{"compound": "miR-34a: microRNA SEQ ID NO: 1; overexpressed via pcDNA3-pm34a-EST (A172) or pre-miR-34a RNA oligonucleotides, Ambion (Bcl-2 study) (UGGCAGUGUCUUAGCUGGUUGUU; listed as RNA, chemistry not fully specified; listed as Homo sapiens)", "values": [{"measurement": "Bcl-2 protein", "setting": "[8]", "value": "decreased"}, {"measurement": "expression of Hey1", "setting": "[2]", "value": "reduction in Hey1 mRNA"}, {"measurement": "mRNA levels of DLL1, Jag1 or Notch1", "setting": "[2]", "value": "absence of any change"}, {"measurement": "Bcl-2 mRNA", "setting": "[9]", "value": "without a measurable decrease"}]}
